The values that follow come from patent US20180118721A1, “PYRIMIDINE DERIVATIVES” (Merck Patent GmbH, priority 2015, published 2018).

In this assay the target is T1, purified human recombinant MTH1 (human MTH1, residues 42-197) (Homo sapiens, UniProt P36639).
T1 construct: human MTH1, residues 42-197, Uniprot-ID: P36639, expressed in E. coli; made in house; host or cells: E. coli
Kind of assay: MTH1 enzymatic assay (luminescence-based, PPiLight). The assay is classed as biochemical. The note with it: 6 μM 8-oxo-dGTP, Table 1, grouped. As to the method:
The IC50 value was determined by a MTH1 enzymatic assay. The assay comprises the principal steps of incubating a mixture of MTH1, the compound in question at different concentrations and 8-oxo-2′-deoxyguanosine-5′-triphosphate (8-oxo-dGTP) in assay buffer. Nucleotide triphosphate hydrolysis by MTH1, i.e. decomposition of 8-oxo-2′-deoxyguanosine-5′-triphosphate, produces 8-oxo-2′-deoxyguanosine-5′-monophosphate (8-oxo-dGMP) and pyrophosphate (PPi). The amount of generated pyrophosphate (PPi) is then measured by a bioluminescent reaction. In detail: The MTH1 (human mutT homologue 1) enzymatic assay is performed as a luminescence-based 384-well assay. […] The assay buffer contains 100 mM Tris-acetate pH 7.5, 40 mM NaCl, 10 mM Mg(OAc)2, 0.005% Tween 20 and 2 mM dithiothreitol (DTT). […] Then, in a second step, the substrate 8-oxo-dGTP is added and the reaction mixture is incubated for 30 minutes at 22° C. The pharmacologically relevant assay volume is 5 PI. The final concentrations in the assay during incubation of the reaction mixture are 0.1-0.2 nM, typically 0.1 nM, MTH1 and 6 μM 8-oxo-dGTP. After incubation of the reaction mixture, the generation of pyrophosphate (PPi) as a result of nucleotide triphosphate (8-oxo-dGTP) hydrolysis by MTH1 is detected using the PPiLight inorganic pyrophosphate assay kit (Lonza) (third step). 2 to 5 μl, such as 3 to 5 μl, typically 3 or 4 μl, for instance 4 μl, of a 1:1 mixture of PPiLight converting reagent (AMP) and PPiLight detection reagent are added to the reaction mixture. In the presence of pyrophosphate, the detection reagent catalyzes the conversion of AMP to ATP. Luciferase then produces light from the newly formed ATP and luciferin. The amount of light produced is directly proportional to the amount of PPi in the sample. Following signal development for 1 h the plates are analysed in an EnVision (PerkinElmer) microplate reader using the ultra sensitive luminescence option. Data are processed employing the Genedata Screener software. In particular, IC50 values are determined in the usual manner (using the Hill Equation) by fitting a dose-response curve to the data points using nonlinear regression analysis.
Hill Equation: Y=S0+(Sinf−S0)/(1+(10^logIC50/10^c)^n); Y: luminescence signal (response), S0: activity level at zero concentration of test compound, Sinf=activity level at infinite concentration, Hill coefficient n=measure of the slope at IC50, c=concentration in logarithmic units corresponding to the values on the x-axis of the dose response curve plot
Consider `Nc1nc(NC2CC2)cc(N2CC[C@](O)(c3ccccc3)C2)n1` (single isomer, unassigned) [Example 37], for which the IC50 (usually the point on the concentration scale where inhibition reaches its midpoint) lay within 1 to 100 nM.
Next, `Nc1nc(NC2CC2)cc(N2CC[C@@](O)(c3ccccc3)C2)n1` (single isomer, unassigned) [Example 38]: 1 to 100 nM.
For the compound `CNc1cc(N2CCC[C@@](O)(c3ccccc3)C2)nc(N)n1` (single isomer, unassigned) [Example 90], the IC50 was 1 to 100 nM.
Regarding `CNc1cc(N2CCCCC2Cc2ccccc2OC)nc(N)n1` (single isomer, unassigned) [Example 106], the IC50 was less than 1 nM.
As for `CNc1cc(N2CCC(CO)C2)nc(N)n1` (stereo not drawn) [Example 1, [1-(2-amino-6-methylamino-pyrimidin-4-yl)-pyrrolidin-3-yl]-methanol], the half-inhibitory concentration (IC50) is less than 1 nM.
Consider `Nc1nc(NC2CC2)cc(N2CCC(CO)C2)n1` (stereo not drawn) [Example 2, [1-(2-amino-6-cyclopropyl amino-pyrimidin-4-yl)-pyrrolidin-3-yl]-methanol], for which the IC50 is less than 1 nM.
Take `Nc1nc(NC2CC2)cc(N2CCC(F)(F)C2)n1` [Example 4, N^4-cyclopropyl-6-(3,3-difluoro-pyrrolidin-1-yl)-pyrimidine-2,4-diamine]: the IC50 was 1 to 100 nM.
The value for `Nc1nc(NC2CC2)cc(N2CCC(O)C2)n1` (stereo not drawn) [Example 6, 1-(2-amino-6-cyclopropylamino-pyrimidin-4-yl)-pyrrolidin-3-ol] was 1 to 100 nM; that for `CNc1cc(N2CCC(OC)C2)nc(N)n1` (stereo not drawn) [Example 9, 86-(3-methoxy-pyrrolidin-1-yl)-N^4-methyl-pyrimidine-2,4-diamine-formate] was less than 1 nM.
For `COC1CCN(c2cc(NC3CC3)nc(N)n2)C1` (stereo not drawn) [Example 10, N^4-cyclopropyl-6-(3-methoxy-pyrrolidin-1-yl)-pyri midine-2,4-diamine-formate], the IC50 fell in the range of 1 to 100 nM.
As for `Nc1nc(NC2CC2)cc(N2CCC[C@@H]2CO)n1` [Example 11, [(R)-1-(2-amino-6-cyclopropylamino-pyrimidin-4-yl)-pyrrolidin-2-yl]-methanol-formate], the IC50 lay in the range of 1 to 100 nM.
With `CNc1cc(N2CCC[C@H]2CO)nc(N)n1` [Example 12, [(S)-1-(2-amino-6-methylamino-pyrimidin-4-yl)-pyrrolidin-2-yl]-methanol], the IC50 fell in the range of 1 to 100 nM.
Next, `Nc1nc(NC2CC2)cc(N2CCC[C@H]2CO)n1` [Example 13, [(S)-1-(2-amino-6-cyclopropylamino-pyrimidin-4-yl)-pyrrolidin-2-yl]-methanol]: 1 to 100 nM; `Nc1nc(NC2CC2)cc(N2CCCC2Cc2ccccc2Cl)n1` (stereo not drawn) [Example 36, 6-[2-(2-Chloro-benzyl)-pyrrolidin-1-yl]-N4-cyclopropyl-pyrimidine-2,4-diamine]: less than 1 nM; `CC1CCN(c2cc(NC3CC3)nc(N)n2)C1C` (stereo not drawn) [Example 39, N4-Cyclopropyl-6-(2,3-dimethyl-pyrrolidin-1-yl)-pyrimidine-2,4-diamine]: 1 to 100 nM.
As to `CCC1(O)CCN(c2cc(NC3CC3)nc(N)n2)C1` (stereo not drawn) [Example 40, 1-(2-Amino-6-cyclopropylamino-pyrimidin-4-yl)-3-ethyl-pyrrolidin-3-ol], the IC50 was in the range of 1 to 100 nM.
The value for `CC1C(c2ccccc2)CCN1c1cc(NC2CC2)nc(N)n1` (stereo not drawn) [Example 41, N4-Cyclopropyl-6-(2-methyl-3-phenyl-pyrrolidin-1-yl)-pyrimidine-2,4-diamine] was 1 to 100 nM; that for `Nc1nc(NC2CC2)cc(N2CCC(O)(C(F)(F)F)C2)n1` (stereo not drawn) [Example 42, 1-(2-Amino-6-cyclopropylamino-pyrimidin-4-yl)-3-trifluoromethyl-pyrrolidin-3-ol] was 1 to 100 nM.
For `NC(=O)[C@@H]1CCN(c2cc(NC3CC3)nc(N)n2)C1` [Example 59, (R)-1-(2-Amino-6-cyclopropylamino-pyrimidin-4-yl)-pyrrolidine-3-carboxylic acid amide], the IC50 lay within 1 to 100 nM.
As to `CNc1cc(N2CC[C@@H](O)C2)nc(N)n1` [Example 60, (R)-1-(2-Amino-6-methylamino-pyrimidin-4-yl)-pyrrolidin-3-ol], the IC50 is 1 to 100 nM.
For `NC(=O)[C@H]1CCN(c2cc(NC3CC3)nc(N)n2)C1` [Example 61, (S)-1-(2-Amino-6-cyclopropylamino-pyrimidin-4-yl)-pyrrolidine-3-carboxylic acid amide], the IC50 is 1 to 100 nM.
`CNc1cc(N2CC[C@@H](CO)C2)nc(N)n1` [Example 64, [(R)-1-(2-Amino-6-methylamino-pyrimidin-4-yl)-pyrrolidin-3-yl]-methanol]: the IC50 was less than 1 nM.
For `CNc1cc(N2CC[C@H](CO)C2)nc(N)n1` [Example 65, [(S)-1-(2-Amino-6-methylamino-pyrimidin-4-yl)-pyrrolidin-3-yl]-methanol], the IC50 is less than 1 nM.
Consider `Nc1nc(NC2CC2)cc(N2CC[C@@H](CO)C2)n1` [Example 66, [(R)-1-(2-Amino-6-cyclopropylamino-pyrimidin-4-yl)-pyrrolidin-3-yl]-methanol], for which the IC50 is less than 1 nM.
The value for `Nc1nc(NC2CC2)cc(N2CC[C@H](CO)C2)n1` [Example 67, [(S)-1-(2-Amino-6-cyclopropylamino-pyrimidin-4-yl)-pyrrolidin-3-yl]-methanol] was 1 to 100 nM.
In the case of `CCNc1cc(N2CCC(F)(F)C2)nc(N)n1` [Example 68, 6-(3,3-Difluoro-pyrrolidin-1-yl)-N4-ethyl-pyrimidine-2,4-diamine], the IC50 is 1 to 100 nM.
The value for `CC(C)Nc1cc(N2CCC(F)(F)C2)nc(N)n1` [Example 69, 6-(3,3-Difluoro-pyrrolidin-1-yl)-N4-isopropyl-pyrimidine-2,4-diamine] was 1 to 100 nM; that for `Nc1nc2c(c(N3CC[C@@H](O)C3)n1)CCCN2` [Example 70, (R)-1-(2-Amino-5,6,7,8-tetrahydro-pyrido[2,3-d]pyrimidin-4-yl)-pyrrolidin-3-ol] was less than 1 nM.
Consider `Nc1nc(NCC2CC2)cc(N2CCC(F)(F)C2)n1` [Example 71, N4-Cyclopropylmethyl-6-(3,3-difluoro-pyrrolidin-1-yl)-pyrimidine-2,4-diamine], for which the IC50 was in the range of 1 to 100 nM.
With `CCCNc1cc(N2CCC(F)(F)C2)nc(N)n1` [Example 72, 6-(3,3-Difluoro-pyrrolidin-1-yl)-N4-propyl-pyrimidine-2,4-diamine], the IC50 lay in the range of 1 to 100 nM.
On to `Nc1nc2c(c(N3CC[C@H](O)C3)n1)CCCN2` [Example 73, (S)-1-(2-Amino-5,6,7,8-tetrahydro-pyrido[2,3-d]pyrimidin-4-yl)-pyrrolidin-3-ol-formiate], for which the IC50 fell in the range of 1 to 100 nM.
Take `FC1(F)CCN(c2ncnc3c2CCCN3)C1` [Example 74, 4-(3,3-Difluoro-pyrrolidin-1-yl)-5,6,7,8-tetrahydro-pyrido[2,3-d]pyrimidine]: the IC50 was more than 100 nM.
With `NC(=O)[C@@H]1CCN(c2nc(N)nc3c2CCCN3)C1` [Example 75, (R)-1-(2-Amino-5,6,7,8-tetrahydro-pyrido[2,3-d]pyrimidin-4-yl)-pyrrolidine-3-carboxylic acid amide-trifluoroacetate], the IC50 is more than 100 nM.
Turning to `CNc1cc(N2CCCC(O)(c3ccccc3)C2)nc(N)n1` (stereo not drawn) [Example 79, 1-(2-Amino-6-methylamino-pyrimidin-4-yl)-3-phenyl-piperidin-3-ol], the half-inhibitory concentration (IC50) was in the range of 1 to 100 nM.
The value for `Nc1nc(NC2CC2)cc(N2CCCC2C(=O)O)n1` (stereo not drawn) [Example 80, 1-(2-Amino-6-cyclopropylamino-pyrimidin-4-yl)-pyrrolidine-2-carboxylic acid] was more than 100 nM; that for `CNc1cc(N2CCCC2Cc2ccccc2OC)nc(N)n1` (stereo not drawn) [Example 82, 6-[2-(2-Methoxy-benzyl)-pyrrolidin-1-yl]-N4-methyl-pyrimidine-2,4-diamine] was less than 1 nM.
With `CNc1cc(N2CCCC2C(C)(C)c2ccccc2)nc(N)n1` (stereo not drawn) [Example 83, N4-Methyl-6-[2-(1-methyl-1-phenylethyl)-pyrrolidin-1-yl]-pyrimidine-2,4-diamine], the IC50 is less than 1 nM.
In the case of `CNc1cc(N2CCCC2Cc2ccccc2C)nc(N)n1` (stereo not drawn) [Example 89, N4-Methyl-6-[2-(2-methyl-benzyl)-pyrrolidin-1-yl]-pyrimidine-2,4-diamine], the IC50 is less than 1 nM.
For `CNc1cc(N2CCC[C@@H]2Cc2ccccc2OC)nc(N)n1` [Example 93, 6-[(R)-2-(2-Methoxy-benzyl)-pyrrolidin-1-yl]-N4-methyl-pyrimidine-2,4-diamine], the IC50 was less than 1 nM.
